ChEMBL document CHEMBL3425451, “Novel synthetic bisbenzimidazole that targets angiogenesis in Ehrlich ascites carcinoma bearing mice” (Bioorg Med Chem Lett, 2015)
Activity calls are given as the source filed them. The calls are words filed in the database; no cut-off is given here.

How the values were obtained:
HeLa [1] = assay: Cytotoxicity against human HeLa cells by MTT assay
A549 = assay: Cytotoxicity against human A549 cells by MTT assay; assay type: functional, cell-based
Vero = assay: Cytotoxicity against African green monkey Vero cells by MTT assay; assay type: cell-based; conditions: Chlorocebus sabaeus
[2] = Cytotoxicity against human HCT116 cells by MTT assay; assay type: functional, cell-based; conditions: HCT-116
EAT [3] = assay: (§1) Inhibition of peritoneal angiogenesis of mouse EAT implanted in Swiss albino mouse assessed as reduction in micro vessel density at 10 mg/kg injected into peritoneum by hematoxylin and eosin staining method; assay type: functional, organism-based; set-up: dose 10 mg/kg
EAT [4] = assay: […] of apoptosis in mouse EAT implanted in Swiss albino mouse assessed as induction of cell shrinkage at 10 mg/kg injected into peritoneum by Giemsa staining based microscopy; assay type: functional, organism-based; set-up: dose 10 mg/kg
EAT [5] = assay: […] of apoptosis in mouse EAT implanted in Swiss albino mouse assessed as induction of apoptotic bodies formation at 10 mg/kg injected into peritoneum by Giemsa staining based microscopy; assay type: functional, organism-based; set-up: dose 10 mg/kg
EAT [6] = assay: Antitumor activity against mouse EAT implanted in Swiss albino mouse assessed as reduction in tumor cell viability at 10 mg/kg injected into peritoneum and measured on day 12 by trypan blue dye exclusion assay; assay type: functional, organism-based; set-up: dose 10 mg/kg
[7] = Inhibition of VEGF production in mouse EAT implanted in Swiss albino mouse peritoneal cavity at 10 mg/kg injected into peritoneum by ELISA method (reference value: 2412 +/- 10 ng); assay type: functional
EAT [8] = assay: […] of apoptosis in mouse EAT implanted in Swiss albino mouse assessed as induction of DNA fragmentation at 10 mg/kg injected into peritoneum by ethidium bromide staining based electrophoresis method; assay type: functional, organism-based; set-up: dose 10 mg/kg
EAT [9] = assay: Inhibition of peritoneal angiogenesis of mouse EAT implanted in Swiss albino mouse at 10 mg/kg injected into peritoneum; assay type: functional, organism-based; set-up: dose 10 mg/kg
EAT [10] = assay: […] of apoptosis in mouse EAT implanted in Swiss albino mouse assessed as induction of small blebs formation at 10 mg/kg injected into peritoneum by Giemsa staining based microscopy; assay type: functional, organism-based; set-up: dose 10 mg/kg
EAT [11] = assay: Antitumor activity against mouse EAT implanted in Swiss albino mouse assessed as reduction in ascites fluid volume at 10 mg/kg injected into peritoneum and measured on day 12; assay type: functional, organism-based; set-up: dose 10 mg/kg
HeLa [12] = assay: Induction of apoptosis in human HeLa cells assessed as accumulation at subG1 phase at 25 uM by propidium iodide staining based flow cytometry; assay type: functional, cell-based; conditions: TDE = time-dependent effect
EAT [13] = assay: Antitumor activity against mouse EAT implanted in Swiss albino mouse assessed as reduction in body weight at 10 mg/kg injected into peritoneum and measured on day 11; assay type: functional, organism-based; set-up: dose 10 mg/kg
[14] = as §1, with “density by measuring number of micro vessels per high power field” for “density”, “method (reference value: 54 +/- 6 vessels/high power field)” for “method”; assay type: functional

Row | Compound | IC50 (HeLa [1]) | IC50 (A549) | IC50 (Vero) | IC50 [2] | also measured
1 | CCCc1nc2c(C)cc(-c3nc4ccccc4n3C)cc2n1S(=O)(=O)c1ccccc1Br | > 50 µM | – | – | – | –
2 | CCCc1nc2c(C)cc(-c3nc4ccccc4n3C)cc2n1S(=O)(=O)c1ccc(C)cc1 | 20.1 µM | > 50 µM | > 50 µM | 41.6 µM | –
3 | CCCc1nc2c(C)cc(-c3nc4ccccc4n3C)cc2n1S(=O)(=O)c1ccc(Cl)cc1 | 21.4 µM | > 50 µM | > 50 µM | 36.8 µM | –
4 | CCCc1nc2c(C)cc(-c3nc4ccccc4n3C)cc2n1S(=O)(=O)c1ccc(Br)cc1 | 24.7 µM | 35.1 µM | > 50 µM | 49.3 µM | –
5 | CCCc1nc2c(C)cc(-c3nc4ccccc4n3C)cc2n1S(=O)(=O)c1cc(Cl)ccc1Cl | > 50 µM | – | – | – | –
6 | CCCc1nc2c(C)cc(-c3nc4ccccc4n3C)cc2n1S(=O)(=O)c1ccccc1 | 23.8 µM | > 50 µM | > 50 µM | > 50 µM | –
7 | CCCc1nc2c(C)cc(-c3nc4ccccc4n3C)cc2n1S(=O)(=O)c1ccc(OC)cc1 | 18.3 µM | 34.7 µM | > 50 µM | 19.1 µM | –
8 | CCCc1nc2c(C)cc(-c3nc4ccccc4n3C)cc2n1S(=O)(=O)c1ccc(F)cc1 | 16.7 µM | 32.2 µM | > 50 µM | 19.9 µM | inhibition (EAT [3]): Active; Activity (EAT [4]): Active; Activity (EAT [5]): Active; inhibition (EAT [6]): Active; Activity [7]: 225 ng; Activity (EAT [8]): Active; inhibition (EAT [9]): Active; Activity (EAT [10]): Active; inhibition (EAT [11]): Active; Activity (HeLa [12]): tde; inhibition (EAT [13]): Active; Activity [14]: 8
9 | CCCc1nc2c(C)cc(-c3nc4ccccc4n3C)cc2n1S(=O)(=O)c1c(C)cc(C)cc1C | 21 µM | > 50 µM | > 50 µM | 29.9 µM | –
10 | CCCc1nc2c(C)cc(-c3nc4ccccc4n3C)cc2n1S(=O)(=O)c1ccccc1Cl | > 50 µM | – | – | – | –
